# Test results published in US20240108734A1, “METHODS FOR TREATING AND AMELIORATING CANCER” (The Regents of the University of California, priority 2021, published 2024).
# Entries after “also recorded” stand apart in the source; their conditions may differ.
# Tests used:
# [1] = tested on: ABL1; assay: ABL1 expression in human CD45+ cells from treated BC CML mice; format: in vivo; conditions: p=0.02
# Excerpt: FIG. 5F. Boxplot depicting Log 2 (cpm) expression of ABL1 by RNA-seq analysis of human CD45^+ cells isolated from vehicle (red), mismatch control (blue) and imetelstat (green) treated BC CML mouse cells (Student's t-test: vehicle: p=0.037, imetelstat: p=0.02).
# [2] = tested on: BC CML CD34+ cells engrafted in RAG2-/-yc-/- mice; assay: Humanized BC CML LSC mouse model; format: in vivo
# Excerpt: Human CD34^+ cells isolated from MF and BC CML samples (Table S2, illustrated as FIG. 11) were transplanted intravenously into adult NSG-SGM3 (expressing human IL-3, GM-CSF and SCF) mice following 300 cGy of irradiation or intrahepatically into neonatal RAG2^−/− yc^−/− mice, respectively^27,32.
# Human CD34^+ cells isolated from MF and BC CML (Table S2) samples were transplanted intravenously into adult NSG-SGM3 (expressing human IL-3, GM-CSF and SCF) mice following
# 300 cGy of irradiation or intrahepatically into newborn RAG2^−/−[…]c^−/− mice^28,32,34. Post-transplantation (13 to 16 weeks), bone marrow and spleen were collected and analyzed by FACS^32. Mice were treated with vehicle, mismatch or imetelstat at varying doses. Also, MF CD34^+ cells were transduced with pCDH lentivirus control or ADAR1-OE lentivirus with a MOI of 100 for 48 hours, followed by intravenous transplantation into NSG-SGM3 mice to assess the impact of ADAR1 overexpression on MF engraftment.
# FIG. 4A. A schema of humanized BC CML LSC and MF SPC mouse models. Human CD34^+ cells sorted from either BC CML or myelofibrosis patient blood or marrow were transplanted into neonatal Rag2^−/−[…]c^−/− mice or intravenously transplanted into adult NSG-S mice. Engrafted BC CML or MF mouse models were randomized into (1) vehicle control, (2) mismatch control, and (3) imetelstat treatment groups (n≥3/group). Bone marrow (BM) and spleen were collected when completing the dosing plan, and the single-cell suspension was analyzed by FACS.
# [3] = tested on: ADAR1-mediated RNA editing; assay: RNA-seq quantification of ADAR1-mediated A-to-I RNA editing in treated BC CML mice; format: in vivo; conditions: human cells from imetelstat treated LSC mouse models; p=0.037
# Procedure: For gene expression and RNA editing analysis, RNA editing sites were identified in REDIportal^34 (see the Supplementary Appendix). […] Gene Set Enrichment Analysis was performed with the Bioconductor package GSVA (see the Supplementary Appendix)^36. For in vitro and in vivo experiments, the Student's t-test was utilized to evaluate statistical significance of normally distributed data and Wilcoxon tests were utilized for non-normally distributed data with a p value of <0.05.
# To quantify adenosine-to-inosine (A-to-I) RNA editing events induced by ADAR1, RNA reads were aligned using 2-pass alignment with STAR 2.5.2b 2-pass alignment. […] All sites were kept if a minimum of three alternative allele carrying reads and ten total reads and a minimum allele frequency of 0.10 were present. […] We only predicted RNA editing sites with >10 reads/site to compare mismatches and excluded sites that were identified as DNA variants. […] To account for multiple testing, adjusted p-values were calculated using the Benjamini-Hochberg procedure and genes with events below an adjusted p-value of 0.05 were called significant and retained in the final lists.
# FIG. 5H. A boxplot depicting detectable RNA edits per million aligned reads in human CD45^+ cells derived from vehicle (red), mismatch control (blue) and imetelstat (green) treated BC CML mouse models. […]
# [4] = tested on: MF CD34+ cells (pre-LSC); assay: SL/M2 stromal co-culture, clonogenic survival and self-renewal (replating) assays, myelofibrosis; format: cell-based, human; conditions: imetelstat only (5 uM in b222), compared with normal bone marrow; for self-renewal capacity (replating) of MF CD34+ cells (pre-LSC): p<0.001; for survival of MF CD34+ cells (pre-LSC): p<0.01
# Excerpt: Lentiviral human wild-type and mutant ADAR1^E912A (pCDH-EF1-T2A-copGFP) and shRNA targeting ADAR1 were produced according to published protocols^27,37. In Vitro MPN-SPC and LSC Survival and Self-Renewal Assays with Imetelstat To assess MPN progenitor and LSC survival and self-renewal in vitro, human primary CD34^+ cells selected from BC CML (n=5), MF (n=9) or age matched normal bone marrow (a-NBM, n=4) were co-cultured with SL/M2 stromal cells for 7-14 days, and then treated with imetelstat alone or combined with dasatinib for BC CML or Pacritinib for MF. Colony forming and replating assays were performed as previously described^32.
# To assess MPN progenitor and LSC survival and self-renewal in vitro, human primary CD34^+ cells selected from BC CML (n=5), MF (n=9) or age matched normal bone marrow (a-NBM, n=4) were co-cultured with SL/M2 stromal cells for 7-14 days, and then treated with Imetelstat alone or combined with dasatinib for BC CML or Pacritinib for MF. Colony forming and replating assays were performed as previously described^32,33.
# FIG. 3A. A schematic illustration of SL/M2 stromal co-cultures established to quantify in vitro MPN-SPC and LSC survival and self-renewal. Human primary CD34^+ cells selected from BC CML (n=5), MF (n=9) or age matched normal bone marrow (a-NBM, n=4) were co-cultured with SL/M2 stromal cells for 7-14 days. While BC CML stromal co-cultures were treated with increasing doses of imetelstat with or without dasatinib, MF stromal co-cultures were treated with imetelast with or without pacritinib.
# FIG. 3D. Imetelstat was used at concentrations ranging from 1 to 10 μM to treat aged normal bone marrow (aNBM, n=4, dark blue) compared with myelofibrosis (MF, light blue, n=9) in stromal co-cultures followed by clonogenic survival (upper panel) and self-renewal (lower panel) assays (**p<0.01, ***p<0.001).
# FIG. 3E. Imetelstat was used at concentrations ranging from 1 to 10 μM alone or in combination with pacritinib (5 nM) to treat aged normal bone marrow (a-NBM, n=4, blue) compared with MF (green, n=9) in stromal co-cultures followed by clonogenic survival (upper panel) and self-renewal (lower panel) assays.
# [5] = 30 mg/kg imetelstat three times a week for 4 weeks, 5 different BC CML, vs vehicle controls
substance,measurement,setting,value
imetelstat,ABL1 expression,[1],significantly reduced
same,human CD45+ cell proliferation / engraftment,[2]; [5],significant reduction; also recorded: reduced
same,malignant progenitor proliferation / engraftment,[2]; [5],significant reduction; also recorded: reduced
same,splenomegaly,[2]; BC CML xenograft,decreases splenomegaly
same,ADAR1-mediated adenosine to inosine RNA editing by RNA-seq,[3],significant reduction; also recorded: significantly reduced
same,self-renewal capacity (replating) of MF CD34+ cells (pre-LSC),[4],decrease
same,self-renewal capacity (replating) of MF CD34+ cells (pre-LSC),[4]; listed as Imetelstat,significantly inhibited
same,survival of MF CD34+ cells (pre-LSC),[4],decrease
same,survival of MF CD34+ cells (pre-LSC),[4]; listed as Imetelstat,significantly inhibited
